Experimental data: patent US11491155B2, “Salt of a pyrimido[6,1-A]isoquinolin-4-one compound” (VERONA PHARMA PLC, priority 2015, dated 2022)
Where two headings read alike, the source gives them in different places.

Key:
[1] = Solubility of RPL554 salts in saline solutions, water and aqueous buffer solutions at 25° C. (HPLC); format: physicochemical; conditions: for solubility at 24 h: thermodynamic from solid
Description: The behaviour of salts of RPL554 were examined under the following conditions: • Phosphate buffered to pH 3.5 in saline, 0.9% w/w at 25° C. • Acetate buffered to pH 4.5 in saline, 0.9% w/w at 25° C. • Citro-Phosphate buffered to pH 4.5 in saline, 0.9% w/w at 25° C. • Phosphate buffered to pH 6.5 in saline, 0.9% w/w at 25° C. • Saline, 0.7, 0.9 and 1.1% w/w at 25° C. • Deionised water at 25° C.
RPL554 salts and RPL554, ca 50 mg, were suspended in the various aqueous media, 1 ml, with agitation at the specified temperatures for 24 hours. The solids were isolated and dried in vacuo at 45° C. The retained filtrates were examined by HPLC.
Additional RPL554 methane sulfonate salt, ca 50 mg, was charged to the water mixtures at 25° C. and 37.5° C. in order to afford a suspension. In all other cases, suspensions were obtained.
The solubility of the RPL554 was determined by HPLC using a single point calibration and is expressed as RPL554 and not as the salt and are detailed in Table 6 and Table 7 for the various conditions utilised.

[2] = Intrinsic dissolution of compressed tablet, pH 7.0, 37° C. (Sirius inForm); format: physicochemical; conditions: for mass dissolved: initial peak; for Mass of salt (μg) dissolved after 2 hours, Average / Mass of salt (μg) dissolved after 2 hours, Test 1 / Mass of salt (μg) dissolved after 2 hours, Test 2: pH 7.0, 0.15 M NaCl, 37° C.
Description: The dissolution assay (pH-dependent sample dissolution) was investigated using the Sirius inForm.
Dissolution of a compressed tablet of the compound was monitored in a pH 7.0 aqueous dissolution experiment (0.15 M NaCl) at 37° C. using UV-absorption spectroscopy in 2 hour experiments. A tablet with a diameter of 3 mm, requiring approximate weights of 10 mg was compressed under a weight of 100 kg load force. Only one face of the tablet was exposed to the dissolution medium, which contained a 0.01 M acetate/phosphate buffer system to minimise perturbation of the experimental pH from dissolution of the drug.
Stirring of the solution was continuous and at a constant rate of 100 rpm. The absorption data was converted to absolute sample weights using previously determined, pH-dependent, molar extinction coefficients. An appropriate wavelength range was chosen to ensure that spectroscopic data with an absorption value of <1.3 was analysed, avoiding erroneous dissolution results due to saturation of the UV light source.

[3] = Primary particle size analysis by laser light diffraction (Mastersizer 2000); format: physicochemical; conditions: micronised, mean n=3
Description: A Mastersizer 2000 fitted with a Scirocco 2000 dry powder dispersion unit (Malvern Instruments Ltd, UK) was used to analyse the primary particle size of the micronised RPL554 and salt variants. The salts (50 mg) were automatically sampled via a vibrating feed control at a feeder rate of 60% and dispersed in compressed air at a pressure of 3 bar.

[4] = Solubility of RPL554 and salts in pMDI propellant systems; format: physicochemical
Description: Quantitative assessment of the solubility of RPL554 and salt variants in the propellant systems of selected pMDI formulations (three replicates of each formulation) was performed. pMDIs were directly coupled to an adaptor fitted with a 0.20 μm filter unit connected, in series to a 21 G needle, which was inserted via a rubber septum, into a cooled multi-dose glass vial. A 19 G filter needle was inserted through the septum to aid evaporation of propellant from the vial. Prior to the filtration process the vial was cooled in a mixture of dry ice and acetone to ensure that the pressure within the vial was reduced in order to facilitate collection of the output from the pMDI. Ten consecutive actuations of the pMDI were fired through the filter and collected in the vial. Between actuations the canister was shaken for approximately 10 seconds. The pMDI unit was weighed before and after the filtering procedure. The filtrate was stored at room temperature and allowed to evaporate to dryness.
Samples were recovered by carefully rinsing the inside of the vials with 1 mL of recovery solution before transfer to HPLC vials for analysis. The estimated % of RPL554 solubilised within the canister was calculated from the starting mass of RPL554 within the canisters, which in turn was calculated using the theoretical molecular weight values of the RPL554 free base and salt variants shown in Table 13. The theoretical molecular weight estimates of the salts were provided by Verona.

[5] = RPL554 content and content uniformity of 1% w/w lactose powder blends; format: physicochemical; conditions: for Measured Blend Content (% Theoretical): 1% w/w RPL554 variant: lactose powder blend, expressed as RPL554 base; for **Adjusted RPL554 Content per capsule: per 20 mg capsule of 1% w/w lactose blend, adjusted for measured blend content (% theoretical), as RPL554 base
Description: Batches (approximately 5 g) of 1% w/w RPL554 free base or salt variants: lactose blends were prepared. In brief, the RPL554 free base or salt plus a small quantity of lactose was passed through a 38 μm sieve. The sieved material plus the remaining lactose was mixed in a glass mortar prior to transfer to a stainless steel screw cap jar and further mixing (10 minutes at 46 rpm) conducted using a Turbula blender. The composition of the dry powder blend was 0.05 g API and 4.95 g lactose.
In order to determine the content uniformity of the blends, aliquots (approx. 20 mg) of powder were sampled from each blend, accurately weighed, and diluted to volume in 10 mL volumetric flasks with diluent. The flasks were sonicated for 3 minutes before samples were transferred to HPLC vials for analysis.

[6] = Aerosol performance of DPI formulations (Cyclohaler, NGI); format: physicochemical; conditions: for †Measured Mass of 1% w/w Blend Delivered per capsule / ††RPL554 Emitted (μg) per capsule (B): Cyclohaler; for †Measured Mass of 1% w/w Blend Delivered per capsule: 5 capsules containing 20 mg powder blend, mass from weight change of capsule-loaded device; for ††RPL554 Emitted (μg) per capsule (B): NGI, mass determined from HPLC analysis of recovered samples; for ††RPL554 Emitted (μg) per capsule (B) / Calculated RPL554 Content (μg) per capsule (A): as RPL554 base; for Calculated RPL554 Content (μg) per capsule (A): calculated from delivered blend mass and measured blend content
Description: Capsules were hand filled with 20 mg of the 1% w/w RPL554 free base or salt variants: lactose blends, i.e. 200 μg salt per capsule, the fill weight of each capsule was recorded. Due to differences in the molecular weights of the RPL554 salt forms, the amount of RPL554 emitted per actuation varied as a function of molecular weight. The formulations were prepared with no adjustment for differences in molecular weight of the salts.
The powders were delivered via the Cyclohaler® DPI (PCH Pharmachemie, BV, The Netherlands). The Cyclohaler® DPI is a low resistance device and was operated at a flow rate of 90 L/min for 2.7 seconds. The cut off diameters for the NGI collection stages were calculated for the 90 L/min flow rate using the NGI User Guide (MSP Corporation, 2008).
The ED, FPD and FPF were determined from inertial impaction tests performed following the deposition of 5 capsules of each formulation into the NGI. For each capsule tested the combined weight of the Cyclohaler® and capsule was determined before and after operation to check that the dose had been delivered. The NGI was fitted with a pre-separator for these determinations. The central cup of the pre-separator was filled with 15 mL of diluent. Following deposition, the solution was recovered in a 20 mL volumetric flask and made up to volume with diluent. RPL554 was quantitatively recovered from the device, induction port and each of the NGI collection stages with 10 mL of diluent.
The volume of diluent used for each sample was selected to ensure RPL554 concentrations were above the limit of quantitation.

[7] = Physico-chemical characteristics of salt candidates: solubility in water, pH of aqueous suspension/solution, form post water maturation
Description: The physico-chemical characteristics of the salt candidates were determined.

[8] = listed as benzenesulfonate salt

COc1cc2c(cc1OC)-c1c/c(=N\c3c(C)cc(C)cc3C)n(CCNC(N)=O)c(=O)n1CC2 [Ethanesulfonate, RPL554 ethanesulfonate]
Solubility as RPL554 (mg/ml) in 0.7 w/w % Saline ([1]; 24 hours): 1.62 mg/mL
Solubility as RPL554 (mg/ml) in 0.9 w/w % Saline ([1]; 24 hours): 0.79 mg/mL
Solubility as RPL554 (mg/ml) in 1.1 w/w % Saline ([1]; 24 hours): 1.27 mg/mL
Solubility as RPL554 (mg/ml) in Water ([1]; deionised water, 24 hours): 21.37 mg/mL
dissolution compared with free base / other salts ([2]; 2 hour experiments): higher dissolution than the rest of the salts
mass dissolved ([2]; at 5.7 min): 600 µg
mass dissolved ([2]; at 13 min): 700 µg
Mass of salt (μg) dissolved after 2 hours, Average ([2]; listed as ethanesulfonate salt): 355 µg
Mass of salt (μg) dissolved after 2 hours, Test 1 ([2]; listed as ethanesulfonate salt): 300 µg
Mass of salt (μg) dissolved after 2 hours, Test 2 ([2]; listed as ethanesulfonate salt): 410 µg
D (0.1) (μm) [3]: 0.56 μm
D (0.5) (μm) [3]: 1.43 μm
D (0.9) (μm) [3]: 4.18 μm
Calculated RPL554 solubilised (%) ([4]; in HFA 134): 5.56%
Calculated Solubilised RPL554 μg per 50 μL actuation ([4]; in HFA 134): 9.03 µg
Solubility RPL554 ([4]; in HFA 134, BLQ = below limit of quantitation (0.06 μg/mL)): 126.81 µg/g
Solubility RPL554 (μg/g) ([4]; in HFA 134, BLQ = below limit of quantitation (0.06 μg/mL), listed as ethanesulfonate): quantifiable levels of solubility
Estimated RPL554 solubilised (%) ([4]; in HFA 134 with Ethanol/Tween): 10.96%
Estimated Solubilised RPL554 μg per 50 μL actuation ([4]; in HFA 134 with Ethanol/Tween): 17.81 µg
Solubility RPL554 ([4]; in HFA 134 with Ethanol/Tween): 266.59 µg/g
Calculated RPL554 solubilised (%) ([4]; in HFA 227): BLQ
Calculated Solubilised RPL554 μg per 50 μL actuation ([4]; in HFA 227): BLQ
Solubility RPL554 (μg/g) ([4]; in HFA 227): BLQ
Measured Blend Content (% Theoretical) [5]: 98.79 % Theoretical
**Adjusted RPL554 Content per capsule [5]: 160.55 µg
†Measured Mass of 1% w/w Blend Delivered per capsule [6]: 20.18 mg
††RPL554 Emitted (μg) per capsule (B) [6]: 111.09 µg
Calculated RPL554 Content (μg) per capsule (A) [6]: 162.00 µg
pH of aqueous suspension/solution ([7]; listed as Ethane sulfonic): 3.04

COc1cc2c(cc1OC)-c1c/c(=N\c3c(C)cc(C)cc3C)n(CCNC(N)=O)c(=O)n1CC2 [Benzenesulfonate, RPL554 benzenesulfonate]
solubility at 24 h ([1]; 0.7% w/w saline, saline or isotonic, 24 hours, read-out: Solubility as RPL554 (mg/ml) in 0.7 w/w % Saline): 2.27 mg/mL
solubility at 24 h ([1]; 0.9% w/w saline, saline or isotonic, 24 hours, read-out: Solubility as RPL554 (mg/ml) in 0.9 w/w % Saline): 2.74 mg/mL
solubility at 24 h ([1]; 1.1% w/w saline, saline or isotonic, 24 hours, read-out: Solubility as RPL554 (mg/ml) in 1.1 w/w % Saline): 2.94 mg/mL
solubility at 24 h ([1]; acetate buffer in 0.9% w/w saline, pH 4.5, aqueous buffer, in saline 0.9% w/w, read-out: Solubility as RPL554 (mg/ml) in buffer solution pH 4.5, Acetate): 1.39 mg/mL
solubility at 24 h ([1]; citro-phosphate buffer in 0.9% w/w saline, pH 4.5, aqueous buffer, in saline 0.9% w/w, read-out: Solubility as RPL554 (mg/ml) in buffer solution pH 4.5, Citro-phosphate): 1.57 mg/mL
solubility at 24 h ([1]; phosphate buffer in 0.9% w/w saline, pH 3.5, aqueous buffer, in saline 0.9% w/w, read-out: Solubility as RPL554 (mg/ml) in buffer solution pH 3.5, Phosphate): 1.1 mg/mL
solubility at 24 h ([1]; deionised water, 24 hours, read-out: Solubility as RPL554 (mg/ml) in Water): 2.57 mg/mL
Mass of salt (μg) dissolved after 2 hours, Average [2, 8]: 60.1 µg
Mass of salt (μg) dissolved after 2 hours, Test 1 [2, 8]: 50.0 µg
Mass of salt (μg) dissolved after 2 hours, Test 2 [2, 8]: 70.1 µg
D (0.1) (μm) [3]: 0.46 μm
D (0.5) (μm) [3]: 1.23 μm
D (0.9) (μm) [3]: 3.51 μm
Estimated RPL554 solubilised (%) ([4]; in HFA 134 with Ethanol/Tween): 4.03%
Estimated Solubilised RPL554 μg per 50 μL actuation ([4]; in HFA 134 with Ethanol/Tween): 6.05 µg
Solubility RPL554 ([4]; in HFA 134 with Ethanol/Tween): 90.57 µg/g
Measured Blend Content (% Theoretical) [5]: 89.34 % Theoretical
**Adjusted RPL554 Content per capsule [5]: 134.22 µg
†Measured Mass of 1% w/w Blend Delivered per capsule [6]: 20.04 mg
††RPL554 Emitted (μg) per capsule (B) [6]: 87.57 µg
Calculated RPL554 Content (μg) per capsule (A) [6]: 134.49 µg
pH of aqueous suspension/solution ([7]; listed as Benzene sulfonic): 3.43
solubility ([7]; water): 1470 µg/mL
